Measured values published in patent publication US20130317116A1, “EXTERNAL SKIN PREPARATION” (JX NIPPON OIL & ENERGY CORPORATION, priority 2011, published 2013).

Assay: Singlet oxygen quenching activity of carotenoids by the ESR method
Type: physicochemical
Conditions: for ESR signal intensity / ESR signal intensity Mean: carotenoid 2.5 mM, lower intensity = more effective quenching; for ESR signal intensity: hematoporphyrin + UVA, TMPD spin trap; for ESR signal intensity Mean: mean of three independent experiments, control 3.20; for singlet oxygen quenching activity compared with astaxanthin: ESR method, Table 3 and FIG. 1
Excerpt: Crosslinking of dermal collagen by singlet oxygen is one reason for wrinkle formation caused by photoaging (Non-Patent Document 1). If the external skin preparation according to the present invention can quench singlet oxygen, specifically, changes in collagen as observed on the photoaged skin can be inhibited, and anti-aging effects can be exerted. Accordingly, pharmacological evaluation of the external skin preparation according to the present invention in respect of improvement and prevention of wrinkle formation can be performed using the singlet oxygen quenching capacity as the indicator. For example, pharmacological evaluation of the external skin preparation according to the present invention can be performed by determining whether or not the external skin preparation according to the present invention has sufficient singlet oxygen quenching capacity by the electron spin resonance (ESR) method that is employed for evaluation of the singlet oxygen quenching activity.
Evaluation was carried out by the ESR method using an ESR apparatus (JEOLJES-FR30, JEOL Ltd.). The method of evaluation is described below.
50 μl of 250 mM spin trap agent, 50 μl of an aqueous solution of 2,2,6,6-tetramethyl-4-piperidione (TMPD), and 50 μl of an acetone solution of 10 mM carotenoid were added to 50 μl of 100 mM phosphate buffer (pH 7.4), these components were thoroughly mixed, 50 μl of an aqueous solution of 0.25 mM hematoporphyrin was added thereto as a singlet oxygen generator, and the resultant was irradiated with ultraviolet A (UVA) to generate singlet oxygen.
Subsequently, ESR signals based on stable nitroxyl radicals (4-oxo-TEMPO) generated upon the reaction between singlet oxygen and TMPD in the reaction solution were measured.
No antioxidant was applied to a control group. The results are the mean and the standard deviations of three independent experiments.

[1] = first of three independent experiments
[2] = second value column of three independent experiments
[3] = third value column of three independent experiments

SMILES | ESR signal intensity [1] | ESR signal intensity [2] | ESR signal intensity [3] | ESR signal intensity Mean | singlet oxygen quenching activity compared with astaxanthin
CC1=C(/C=C/C(C)=C/C=C/C(C)=C/C=C/C=C(C)/C=C/C=C(C)/C=C/C2=C(C)C(=O)[C@@H](O)CC2(C)C)C(C)(C)C[C@H](O)C1=O [Astaxanthin, astaxanthin, reference compound] | 2.00 | 2.33 | 2.72 | 2.35 | 
CC1=C(/C=C/C(C)=C/C=C/C(C)=C/C=C/C=C(C)/C=C/C=C(C)/C=C/C2=C(C)C(=O)[C@@H](O)CC2(C)C)C(C)(C)CCC1=O [Adonirubin, adonirubin] | 0.79 | 1.13 | 1.11 | 1.01 | significantly higher than that of astaxanthin
CC1=C(/C=C/C(C)=C/C=C/C(C)=C/C=C/C=C(C)/C=C/C=C(C)/C=C/C2=C(C)C(=O)[C@@H](O)CC2(C)C)C(C)(C)C[C@H](O)C1 [Adonixanthin, adonixanthin] | 0.74 | 0.97 | 0.72 | 0.81 | significantly higher than that of astaxanthin
